Data on 1 compound can be found in ChEMBL document CHEMBL1159015, “Isolation of the bioactive terpene 7-deacetoxy-olepupuane from the temperate marine sponge Dysidea sp” (J Nat Prod, 1992).

Values after ≈ are worked out from the molar mass of the structure shown.

This assay has as its system P388. The experiment in a line: Cytotoxicity against mouse P388 cells. Type of assay: functional, cell-based.

A word on the IC50: it is the concentration that inhibits the measured activity by half. A high value points to a need for much substance.

With `CC(=O)O[C@@H]1OC=C2CC[C@H]3C(C)(C)CCC[C@]3(C)[C@H]21`, half-maximal inhibition (IC50) required 16.4 µg/mL (≈ 58.9 µM).
